Consider 10 compounds from ChEMBL document CHEMBL4393707, “Synthesis and evaluation of new quinazolin-4(3H)-one derivatives as potent antibacterial agents against multidrug resistant Staphylococcus aureus and Mycobacterium tuberculosis” (Eur J Med Chem, 2019).

Data set [1] relates to Staphylococcus aureus. Description: Antibacterial activity against vancomycin-resistant Staphylococcus aureus VRS4 incubated for 16 to 18 hrs by broth microdilution assay. It is filed as functional. (In general: Dilution methods test growth across graded concentrations, often in twofold steps.)
Data set [2] concerns Staphylococcus aureus. Description: Antibiofilm activity against Staphylococcus aureus ATCC 29213 at 10 times MIC incubated 48 hrs by crystal violet staining based assay relative to control. Format: functional.
Data set [3] deals with Staphylococcus aureus. Description: Antibacterial activity against Staphylococcus aureus ATCC 29213 assessed as time required to increase 1 log10 CFU at MIC incubated for 1 hr followed by compound washout and measured at 1 hr intervals (reference value: 2 hrs). It is filed as functional.
Data set [4] relates to Staphylococcus aureus. Description: Antibacterial activity against vancomycin-resistant Staphylococcus aureus VRS12 incubated for 16 to 18 hrs by broth microdilution assay. Format: functional.
Data set [5] has as its system Staphylococcus aureus. Description: Antimicrobial activity against Staphylococcus aureus ATCC 29213 infected in BALB/c mouse model of neutropenic thigh infection assessed reduction in bacterial levels in thigh at 25 mg/kg, ip administered 3 hrs post infection twice at interval of 3 hrs between injections and measured after 24 hrs. It is filed as functional, organism-based.

The test system of data set [6] is Staphylococcus aureus. The data set can be described thus: Antibacterial activity against Staphylococcus aureus ATCC 29213 assessed as time required to increase 1 log10 CFU at 10 times MIC incubated for 1 hr followed by compound washout and measured at 1 hr intervals (reference value: 2 hrs). Format: functional.
In data set [7] the test system is Staphylococcus aureus. The data set can be described thus: Antibacterial activity against Staphylococcus aureus ATCC 29213 assessed as post antibiotic effect time at MIC incubated for 1 hr followed by compound washout and measured at 1 hr intervals (reference value: 0 hrs). It is filed as functional.
Data set [8] deals with Staphylococcus aureus. The data set can be described thus: Antibacterial activity against Staphylococcus aureus ATCC 29213 assessed as post antibiotic effect time at 10 times MIC incubated for 1 hr followed by compound washout and measured at 1 hr intervals (reference value: 0 hrs). It is filed as functional.
Data set [9] concerns Staphylococcus aureus. Description: Antibacterial activity against vancomycin-resistant Staphylococcus aureus VRS1 incubated for 16 to 18 hrs by broth microdilution assay. It is filed as functional.
Another data set deals with Pseudomonas aeruginosa. Description: Antibacterial activity against Pseudomonas aeruginosa ATCC 27853 incubated for 16 to 18 hrs by broth microdilution assay. It is filed as functional.
The subject of a further data set is Klebsiella pneumoniae. The data set can be described thus: Antibacterial activity against Klebsiella pneumoniae ATCC BAA-1705 incubated for 16 to 18 hrs by broth microdilution assay. Format: functional.
The next data set concerns Acinetobacter baumannii. Description: Antibacterial activity against Acinetobacter baumannii BAA1605 incubated for 16 to 18 hrs by broth microdilution assay. It is filed as functional.
The test system of data set [10] is Mycobacterium tuberculosis. Description: Antitubercular activity against Mycobacterium tuberculosis H37Rv after 7 days by resazurin dye based assay. It is filed as functional. Particulars: 168 h. On the technique in general: Alamar Blue is a resazurin reagent that responds to reducing activity.
The test system of the next data set is Escherichia coli. Description: Antibacterial activity against Escherichia coli ATCC 25922 incubated for 16 to 18 hrs by broth microdilution assay. Format: functional.
Data set [11] in a line: Selectivity index, ratio of CC50 for African green monkey Vero cells to MIC for Staphylococcus aureus ATCC 29213. Format: toxicity. The following applies: read-out: Selectivity Index.
Data set [12] can be described thus: Cytotoxicity against African green monkey Vero cells assessed as reduction in cell viability after 72 hrs by MTT assay. Format: cell-based. The following applies: chlorocebus sabaeus. In general terms: Tetrazolium dyes change colour on reduction, which living cells bring about.
The test system of data set [13] is Staphylococcus aureus. The data set can be described thus: Antibacterial activity against Staphylococcus aureus ATCC 29213 incubated for 16 to 18 hrs by broth microdilution assay. Format: functional.
Data set [14] in a line: Selectivity index, ratio of CC50 for African green monkey Vero cells to MIC for Mycobacterium tuberculosis H37Rv. The following applies: read-out: Selectivity Index. Format: toxicity.
In data set [15] the test system is Staphylococcus aureus. Description: Antibacterial activity against methicillin-resistant Staphylococcus aureus NR10193 incubated for 16 to 18 hrs by broth microdilution assay. Format: functional.
Data set [16] deals with Staphylococcus aureus. Description: Antibacterial activity against methicillin-resistant Staphylococcus aureus NR10198 incubated for 16 to 18 hrs by broth microdilution assay. Format: functional.
Data set [17] concerns Staphylococcus aureus. The data set can be described thus: Antibacterial activity against methicillin-resistant Staphylococcus aureus NR10194 incubated for 16 to 18 hrs by broth microdilution assay. It is filed as functional.
Data set [18] has as its system Staphylococcus aureus. Description: Antibacterial activity against methicillin-resistant Staphylococcus aureus NR119 incubated for 16 to 18 hrs by broth microdilution assay. It is filed as functional.
Data set [19] concerns Staphylococcus aureus. Description: Antibacterial activity against methicillin-resistant Staphylococcus aureus NR10186 incubated for 16 to 18 hrs by broth microdilution assay. Format: functional.
Data set [20] concerns Staphylococcus aureus. Description: Antibacterial activity against methicillin-resistant Staphylococcus aureus NR10191 incubated for 16 to 18 hrs by broth microdilution assay. It is filed as functional.
Data set [21] relates to Staphylococcus aureus. Description: Antibacterial activity against methicillin-susceptible Staphylococcus aureus ATCC 29213 incubated for 16 to 18 hrs by broth microdilution assay. It is filed as functional.
Data set [22] concerns Staphylococcus aureus. Description: Antibacterial activity against methicillin-resistant Staphylococcus aureus NR100 incubated for 16 to 18 hrs by broth microdilution assay. It is filed as functional.
In data set [23] the test system is Staphylococcus aureus. The data set can be described thus: Antibacterial activity against methicillin-resistant Staphylococcus aureus NR10192 incubated for 16 to 18 hrs by broth microdilution assay. It is filed as functional.
Data set [24] relates to Staphylococcus aureus. Description: Antibacterial activity against methicillin-resistant Staphylococcus aureus NR10129 incubated for 16 to 18 hrs by broth microdilution assay. It is filed as functional.

Values after ≈ are worked out from the molar mass of the structure shown. Active and inactive are the calls of the source. The rule behind the calls is not given here.

For `CN[C@H](CC(C)C)C(=O)N[C@H]1C(=O)N[C@@H](CC(N)=O)C(=O)N[C@H]2C(=O)N[C@H]3C(=O)N[C@H](C(=O)N[C@H](C(=O)O)c4cc(O)cc(O)c4-c4cc3ccc4O)[C@H](O)c3ccc(c(Cl)c3)Oc3cc2cc(c3O[C@@H]2O[C@H](CO)[C@@H](O)[C@H](O)[C@H]2O[C@H]2C[C@](C)(N)[C@H](O)[C@H](C)O2)Oc2ccc(cc2Cl)[C@H]1O` [VANCOMYCIN], the minimal inhibitory concentration (MIC) in the data set on Staphylococcus aureus [1], against Staphylococcus aureus [4] and in the data set with Staphylococcus aureus [9] was over 64 µg/mL each time. Moreover, in the data set on Staphylococcus aureus [2], the Activity is 7.7%. The Time in the data set with Staphylococcus aureus [3] came out at 3 h; in the data set on Staphylococcus aureus [6], 4 h; with Staphylococcus aureus [7], 1 h; with Staphylococcus aureus [8], 2 h. Further, the result in the data set with Staphylococcus aureus [5] was Active.
Regarding `N#Cc1ccc(/C=C/c2nc3ncccc3c(=O)n2-c2ccc(S)cc2)cc1`, the MIC with Pseudomonas aeruginosa was over 64 µg/mL; with Klebsiella pneumoniae it was over 64 µg/mL; with Acinetobacter baumannii it was over 64 µg/mL; in data set [10] it was over 64 µg/mL; against Escherichia coli, over 64 µg/mL; against Staphylococcus aureus [13], 2 µg/mL (≈ 5.23 µM). Further, the selectivity ratio in data set [11] is over 5. Moreover, in [12], the 50% cytotoxic concentration (CC50) at 72 h was over 10 µg/mL.
Take `C#CCOc1cccc(-n2c(/C=C/c3ccc(C#N)cc3)nc3cccc(F)c3c2=O)c1`: the minimal inhibitory concentration (MIC) against Pseudomonas aeruginosa is over 64 µg/mL; against Klebsiella pneumoniae it was over 64 µg/mL; against Acinetobacter baumannii it was over 64 µg/mL; in data set [10], 2 µg/mL (≈ 4.75 µM); against Escherichia coli, over 64 µg/mL; against Staphylococcus aureus [13], 0.5 µg/mL (≈ 1.19 µM). Besides, the selectivity ratio in data set [14] is over 5; in [11], over 10. Moreover, the CC50 at 72 h in data set [12] lay within 5 to 10 µg/mL (≈ 11.9 to 23.7 µM).
For the compound `Cc1nc2cc(-c3ccc(F)cc3)ccc2c(=O)n1-c1cccc(Cl)c1`, the MIC was over 64 µg/mL in the data set on Pseudomonas aeruginosa; over 64 µg/mL against Klebsiella pneumoniae; over 64 µg/mL against Acinetobacter baumannii; 16 µg/mL (≈ 43.9 µM) in [10]; over 64 µg/mL with Escherichia coli; over 64 µg/mL in the data set on Staphylococcus aureus [13]. Further, the selectivity ratio in data set [14] was over 0.93. Also, the CC50 at 72 h in [12] was over 15 µg/mL.
Consider `C[C@@H](O)[C@H]1C(=O)N2C(C(=O)O)=C(S[C@@H]3CN[C@H](C(=O)N(C)C)C3)[C@H](C)[C@H]12` [MEROPENEM], for which the MIC was over 64 µg/mL in the data set on Staphylococcus aureus [1]; 32 µg/mL (≈ 83.4 µM) in the data set on Staphylococcus aureus [15]; 32 µg/mL (≈ 83.4 µM) in the data set with Staphylococcus aureus [16]; 0.5 µg/mL (≈ 1.3 µM) in the data set with Staphylococcus aureus [17]; over 64 µg/mL against Staphylococcus aureus [18]; over 64 µg/mL in the data set on Staphylococcus aureus [4]. In addition, the MIC against Staphylococcus aureus [19] is 16 to 32 µg/mL (≈ 41.7 to 83.4 µM); against Staphylococcus aureus [20] it was over 64 µg/mL; against Staphylococcus aureus [21] it was under 0.5 µg/mL; in the data set on Staphylococcus aureus [22], over 64 µg/mL; with Staphylococcus aureus [23], 4 to 8 µg/mL (≈ 10.4 to 20.9 µM); in the data set with Staphylococcus aureus [24] it was 16 µg/mL (≈ 41.7 µM). The values for the MIC with Staphylococcus aureus [9] and with Staphylococcus aureus [13] were over 64 µg/mL and 0.25 µg/mL (≈ 0.652 µM), respectively.
`C#CCNc1ccc2c(=O)n(-c3ccccc3)c(C)nc2c1`: the MIC against Pseudomonas aeruginosa was over 64 µg/mL; against Klebsiella pneumoniae, over 64 µg/mL; against Acinetobacter baumannii it was over 64 µg/mL; in data set [10], 4 µg/mL (≈ 13.8 µM); with Escherichia coli, over 64 µg/mL; against Staphylococcus aureus [13], over 64 µg/mL. In data set [14], the selectivity ratio was over 25. The CC50 at 72 h in data set [12] was over 100 µg/mL.
Take `C[C@H]1COc2c(N3CCN(C)CC3)c(F)cc3c(=O)c(C(=O)O)cn1c23.C[C@H]1COc2c(N3CCN(C)CC3)c(F)cc3c(=O)c(C(=O)O)cn1c23.O` [LEVOFLOXACIN]: the MIC is over 64 µg/mL with Staphylococcus aureus [1]; 32 µg/mL against Staphylococcus aureus [15]; 32 µg/mL with Staphylococcus aureus [16]; 0.5 µg/mL in the data set on Pseudomonas aeruginosa; 0.5 µg/mL with Staphylococcus aureus [17]; 64 µg/mL against Klebsiella pneumoniae. For the same compound, the MIC against Staphylococcus aureus [18] was 16 µg/mL; in the data set with Staphylococcus aureus [4] it was 32 to 64 µg/mL; in the data set on Staphylococcus aureus [19] it was 4 to 8 µg/mL; against Staphylococcus aureus [20], 16 to 32 µg/mL; with Staphylococcus aureus [21] it was under 0.5 µg/mL; against Staphylococcus aureus [22], under 0.5 µg/mL. Further, the minimum inhibitory concentration (MIC) was 4 to 8 µg/mL in the data set on Staphylococcus aureus [23], 0.5 µg/mL in the data set with Staphylococcus aureus [24], 32 µg/mL with Staphylococcus aureus [9] and 0.125 to 0.25 µg/mL against Staphylococcus aureus [13]. In the data set on Staphylococcus aureus [2], this compound gave an Activity of 30.6%. For the same compound, the Time was 3 h with Staphylococcus aureus [3], 3 h in the data set with Staphylococcus aureus [6], 1 h with Staphylococcus aureus [7] and 1 h in the data set on Staphylococcus aureus [8].
For the compound `Cc1nc2ccc(OCc3cn(-c4ccc(Cl)cc4)nn3)cc2c(=O)n1-c1ccccc1`, the MIC in the data set with Pseudomonas aeruginosa is over 64 µg/mL; in the data set with Klebsiella pneumoniae it was over 64 µg/mL; against Acinetobacter baumannii, over 64 µg/mL; in [10] it was 16 µg/mL (≈ 36 µM); in the data set on Escherichia coli, over 64 µg/mL; with Staphylococcus aureus [13], over 64 µg/mL. In data set [14], the selectivity ratio was over 2.08. Besides, in [12], the half-maximal cytotoxic concentration (CC50) at 72 h was over 33.3 µg/mL.
On to `Cc1nc2ccc(OCc3cn(-c4cccc(Cl)c4)nn3)cc2c(=O)n1-c1ccccc1`, for which the MIC with Pseudomonas aeruginosa is over 64 µg/mL; with Klebsiella pneumoniae it was over 64 µg/mL; against Acinetobacter baumannii it was over 64 µg/mL; in [10], 16 µg/mL (≈ 36 µM); in the data set on Escherichia coli, over 64 µg/mL; in the data set with Staphylococcus aureus [13], over 64 µg/mL. Also, the selectivity ratio in data set [14] was over 6.25. Besides, the CC50 at 72 h in data set [12] is over 100 µg/mL.
In the case of `C#Cc1cccc(-n2c(/C=C/c3ccc(C#N)cc3)nc3cccc(F)c3c2=O)c1`, the MIC against Pseudomonas aeruginosa is over 64 µg/mL; against Klebsiella pneumoniae, over 64 µg/mL; against Acinetobacter baumannii it was over 64 µg/mL; in data set [10] it was over 64 µg/mL; against Escherichia coli it was over 64 µg/mL; in the data set with Staphylococcus aureus [13], 0.25 µg/mL (≈ 0.639 µM). The selectivity ratio in data set [11] is over 40. For the same compound, the CC50 at 72 h in data set [12] is over 10 µg/mL.

Usually MIC stands for the least concentration at which growth counts as inhibited. By CC50 is commonly meant the concentration at which the toxic effect on the cells reaches its halfway point.
